tested on: hepatic CYP1A1 activity (ethoxyresorufin-O-deethylase, EROD); assay: Hepatic EROD activity in hepatic microsomal fractions after single oral dose; assay type: in vivo, female C57BL/6 mice; settings: dose metric Adm dose; 3 days after single oral dose
Procedure: (§1) Animals. Eight-week-old female C57BL/6 mice (Harlan laboratories, Venray, the Netherlands) were randomly assigned to treatment groups (six animals per group) and allowed to acclimate for 1.5 weeks. The animals were housed in groups in standard cages and conditions (23 ± 2°C, 50–60% relative humidity, 12-hr dark/light cycle) with free access to food and water. Mice received a single dose of test compound by oral gavage at a dosing volume of 10 mL/kg body weight (BW). Mice treated with corn oil vehicle (10 mL/kg BW) served as controls. For each congener, five different doses were administered, ranging from 0.5–100 μg/kg BW (TCDD) to 5,000–500,000 µg/kg BW (PCB-153). Detailed information on doses is provided in Supplemental Material, Table S1 (http://dx.doi.org/10.1289/ehp.1206336). On day 3 after dosing, animals were euthanized by CO2/O2 asphyxiation, and blood was immediately collected from the abdominal aorta. The liver, thymus, spleen, and adipose tissue were removed, weighed (liver, thymus, and spleen), snap frozen, and stored at –80°C. All animal treatments were performed with permission of the Animal Ethical Committee (DEC Utrecht) and performed according to the [Law on Animal Experiments (1977)]. Animals were treated humanely and with regard for alleviation of suffering.
EROD activity. We determined hepatic CYP1A1 activity using ethoxyresorufin-O-deethylase (EROD) activity in hepatic microsomal fractions as described by [Schulz et al. (2012)].
(§2) Data analysis. We obtained concentration–response curves using a sigmoidal dose–response nonlinear regression curve fit with variable slope (GraphPad Prism 6.01; GraphPad Software Inc., San Diego, CA, USA):
(§3) In this Hill equation, y is the dependent variable (EROD activity or fold induction of mRNA levels), x the independent variable (administered or systemic dose), E0 is the estimated background response level, Emax is the maximum response, b is the estimated median effective concentration (EC50), and n is the shaping parameter of the Hill curve.
(§4) Using the congener-specific BMR20TCDD concentration, REPs were calculated relatively to TCDD: […]

| Compound | BMR20TCDD Liver EROD activity [µg/kg BW] |
| --- | --- |
| Clc1ccc(-c2cc(Cl)c(Cl)c(Cl)c2)cc1Cl [PCB-126, 3,3´,4,4´,5-pentachlorobiphenyl] | 29.3 |
| Clc1cc2c(cc1Cl)Oc1c(cc(Cl)c(Cl)c1Cl)O2 [PeCDD, 1,2,3,7,8-pentachlorodibenzodioxin] | 0.54 |

same assay, conditions: dose metric Syst adipose; 3 days after single oral dose

| Compound | BMR20TCDD Liver EROD activity [ng/g lipid] |
| --- | --- |
| Clc1ccc(-c2cc(Cl)c(Cl)c(Cl)c2)cc1Cl [PCB-126, 3,3´,4,4´,5-pentachlorobiphenyl] | 72.7 |
| Clc1cc2c(cc1Cl)Oc1c(cc(Cl)c(Cl)c1Cl)O2 [PeCDD, 1,2,3,7,8-pentachlorodibenzodioxin] | 1.25 |

same assay, conditions: dose metric Syst plasma; 3 days after single oral dose

| Compound | BMR20TCDD Liver EROD activity [ng/g lipid] |
| --- | --- |
| Clc1ccc(-c2cc(Cl)c(Cl)c(Cl)c2)cc1Cl [PCB-126, 3,3´,4,4´,5-pentachlorobiphenyl] | 72.3 |
| Clc1cc2c(cc1Cl)Oc1c(cc(Cl)c(Cl)c1Cl)O2 [PeCDD, 1,2,3,7,8-pentachlorodibenzodioxin] | 2.31 |

same assay, conditions: relative to TCDD; dose metric Adm dose (µg/kg BW)

| Compound | REP Liver EROD activity |
| --- | --- |
| Clc1ccc(-c2cc(Cl)c(Cl)c(Cl)c2)cc1Cl [PCB-126, 3,3´,4,4´,5-pentachlorobiphenyl] | 0.01 |
| Clc1cc2c(cc1Cl)Oc1c(cc(Cl)c(Cl)c1Cl)O2 [PeCDD, 1,2,3,7,8-pentachlorodibenzodioxin] | 0.5 |

same assay, conditions: relative to TCDD; dose metric Syst adipose (ng/g lipid)

| Compound | REP Liver EROD activity |
| --- | --- |
| Clc1ccc(-c2cc(Cl)c(Cl)c(Cl)c2)cc1Cl [PCB-126, 3,3´,4,4´,5-pentachlorobiphenyl] | 0.02 |
| Clc1cc2c(cc1Cl)Oc1c(cc(Cl)c(Cl)c1Cl)O2 [PeCDD, 1,2,3,7,8-pentachlorodibenzodioxin] | 1 |

same assay, conditions: relative to TCDD; dose metric Syst liver (ng/g lipid)

| Compound | REP Liver EROD activity |
| --- | --- |
| Clc1ccc(-c2cc(Cl)c(Cl)c(Cl)c2)cc1Cl [PCB-126, 3,3´,4,4´,5-pentachlorobiphenyl] | 0.003 |
| Clc1cc2c(cc1Cl)Oc1c(cc(Cl)c(Cl)c1Cl)O2 [PeCDD, 1,2,3,7,8-pentachlorodibenzodioxin] | 0.3 |

same assay, conditions: relative to TCDD; dose metric Syst liver (ng/g liver)

| Compound | REP Liver EROD activity |
| --- | --- |
| Clc1ccc(-c2cc(Cl)c(Cl)c(Cl)c2)cc1Cl [PCB-126, 3,3´,4,4´,5-pentachlorobiphenyl] | 0.004 |
| Clc1cc2c(cc1Cl)Oc1c(cc(Cl)c(Cl)c1Cl)O2 [PeCDD, 1,2,3,7,8-pentachlorodibenzodioxin] | 0.3 |

same assay, conditions: relative to TCDD; dose metric Syst plasma (ng/g lipid)

| Compound | REP Liver EROD activity |
| --- | --- |
| Clc1ccc(-c2cc(Cl)c(Cl)c(Cl)c2)cc1Cl [PCB-126, 3,3´,4,4´,5-pentachlorobiphenyl] | 0.02 |
| Clc1cc2c(cc1Cl)Oc1c(cc(Cl)c(Cl)c1Cl)O2 [PeCDD, 1,2,3,7,8-pentachlorodibenzodioxin] | 0.6 |

tested on: Cyp1a2 mRNA in liver; assay: Cyp1a2 gene expression in liver (real-time PCR); assay type: in vivo, female C57BL/6 mice; settings: dose metric Adm dose; 3 days after single oral dose
Procedure: as §1
(§5) RNA isolation and quantitative real-time polymerase chain reaction (PCR). Total RNA was isolated from liver and PBLs using a QIAGEN RNeasy kit (QIAGEN). Purity and concentration of the isolated RNA was determined by measuring the absorbance ratio at 260/280 nm and 230/260 nm with a Nanodrop 2000 spectrophotometer (Thermo Scientific, Asheville, NC, USA). RNA was reverse transcribed to complementary DNA (cDNA) using the iScript cDNA synthesis Kit (Bio-Rad, Veenendaal, the Netherlands). Quantitative real-time PCR analyses were performed using the iQ Real-Time PCR Detection System with SYBR green (Bio-Rad). Amplification reactions were set up with […] containing 12.5 μL iQ SYBR Green Supermix (Bio-rad), 0.5 μL distilled H2O, 1 μL (10 μM) forward primer, 1 μL (10 μM) reverse primer, and 10 μL first strand cDNA (10X diluted). Primer sequences were as follows: Cyp1a1: forward-5´-GGTTAACCATGACCGGGAACT-3´ and reverse-5´-TGCCCAAACCAAAGAGAGTGA-3´ ([Schulz et al. 2012]); Cyp1a2: forward-5´-ACATTCCCAAGGAGCGCTGTATCT-3´ and reverse-5´-GTCGATGGCCGAGTTGTTATTGGT-3´ ([Flaveny et al. 2010]); Cyp1b1: forward-5´-GTGGCTGCTCATCCTCTTTACC-3´ and reverse-5´-CCCACAACCTGGTCCAACTC-3´ ([Berge et al. 2004]); β-actin: forward-5´-ATGCTCCCCGGGCTGTAT-3´ and reverse-5´-CATAGGAGTCCTTCTGACCCATTC-3´ ([Schulz et al. 2012]). All primers were run through the National Center for Biotechnology Information Primer-BLAST database (http://www.ncbi.nlm.nih.gov/tools/primer-blast/) to confirm specificity and validate for optimal annealing temperature (60°C for all primers) and efficiency. The efficiency of all primer pairs was 98–102% (tested at 60°C). The following program was used for denaturation and amplification of cDNA: 3 min at 95°C, followed by 40 cycles of 15 sec at 95°C and 45 sec at 60°C. Gene expression for each sample was expressed as threshold cycle (Ct), normalized to the reference gene β-actin (ΔCt). We calculated fold induction relative to the control group.
as §2, §3, §4

| Compound | BMR20TCDD Liver Cyp1a2 mRNA [µg/kg BW] |
| --- | --- |
| Clc1ccc(-c2cc(Cl)c(Cl)c(Cl)c2)cc1Cl [PCB-126, 3,3´,4,4´,5-pentachlorobiphenyl] | 87.4 |
| Clc1cc2c(cc1Cl)Oc1c(cc(Cl)c(Cl)c1Cl)O2 [PeCDD, 1,2,3,7,8-pentachlorodibenzodioxin] | 0.56 |

same assay, conditions: dose metric Syst adipose; 3 days after single oral dose

| Compound | BMR20TCDD Liver Cyp1a2 mRNA [ng/g lipid] |
| --- | --- |
| Clc1ccc(-c2cc(Cl)c(Cl)c(Cl)c2)cc1Cl [PCB-126, 3,3´,4,4´,5-pentachlorobiphenyl] | 120 |
| Clc1cc2c(cc1Cl)Oc1c(cc(Cl)c(Cl)c1Cl)O2 [PeCDD, 1,2,3,7,8-pentachlorodibenzodioxin] | 1.20 |

same assay, conditions: dose metric Syst plasma; 3 days after single oral dose

| Compound | BMR20TCDD Liver Cyp1a2 mRNA [ng/g lipid] |
| --- | --- |
| Clc1ccc(-c2cc(Cl)c(Cl)c(Cl)c2)cc1Cl [PCB-126, 3,3´,4,4´,5-pentachlorobiphenyl] | 135 |
| Clc1cc2c(cc1Cl)Oc1c(cc(Cl)c(Cl)c1Cl)O2 [PeCDD, 1,2,3,7,8-pentachlorodibenzodioxin] | 2.36 |

same assay, conditions: relative to TCDD; dose metric Adm dose (µg/kg BW)

| Compound | REP Liver Cyp1a2 mRNA |
| --- | --- |
| Clc1ccc(-c2cc(Cl)c(Cl)c(Cl)c2)cc1Cl [PCB-126, 3,3´,4,4´,5-pentachlorobiphenyl] | 0.005 |
| Clc1cc2c(cc1Cl)Oc1c(cc(Cl)c(Cl)c1Cl)O2 [PeCDD, 1,2,3,7,8-pentachlorodibenzodioxin] | 0.7 |

same assay, conditions: relative to TCDD; dose metric Syst adipose (ng/g lipid)

| Compound | REP Liver Cyp1a2 mRNA |
| --- | --- |
| Clc1ccc(-c2cc(Cl)c(Cl)c(Cl)c2)cc1Cl [PCB-126, 3,3´,4,4´,5-pentachlorobiphenyl] | 0.01 |
| Clc1cc2c(cc1Cl)Oc1c(cc(Cl)c(Cl)c1Cl)O2 [PeCDD, 1,2,3,7,8-pentachlorodibenzodioxin] | 1 |

same assay, conditions: relative to TCDD; dose metric Syst liver (ng/g lipid)

| Compound | REP Liver Cyp1a2 mRNA |
| --- | --- |
| Clc1ccc(-c2cc(Cl)c(Cl)c(Cl)c2)cc1Cl [PCB-126, 3,3´,4,4´,5-pentachlorobiphenyl] | 0.002 |
| Clc1cc2c(cc1Cl)Oc1c(cc(Cl)c(Cl)c1Cl)O2 [PeCDD, 1,2,3,7,8-pentachlorodibenzodioxin] | 0.5 |

same assay, conditions: relative to TCDD; dose metric Syst liver (ng/g liver)

| Compound | REP Liver Cyp1a2 mRNA |
| --- | --- |
| Clc1ccc(-c2cc(Cl)c(Cl)c(Cl)c2)cc1Cl [PCB-126, 3,3´,4,4´,5-pentachlorobiphenyl] | 0.003 |
| Clc1cc2c(cc1Cl)Oc1c(cc(Cl)c(Cl)c1Cl)O2 [PeCDD, 1,2,3,7,8-pentachlorodibenzodioxin] | 0.6 |

same assay, conditions: relative to TCDD; dose metric Syst plasma (ng/g lipid)

| Compound | REP Liver Cyp1a2 mRNA |
| --- | --- |
| Clc1ccc(-c2cc(Cl)c(Cl)c(Cl)c2)cc1Cl [PCB-126, 3,3´,4,4´,5-pentachlorobiphenyl] | 0.01 |
| Clc1cc2c(cc1Cl)Oc1c(cc(Cl)c(Cl)c1Cl)O2 [PeCDD, 1,2,3,7,8-pentachlorodibenzodioxin] | 0.8 |

tested on: Cyp1b1 mRNA in PBLs; assay: Cyp1b1 gene expression in peripheral blood lymphocytes; assay type: in vivo, female C57BL/6 mice; settings: dose metric Adm dose; 3 days after single oral dose
Procedure: as §1
Plasma and PBL isolation. Blood from two mice was pooled (total volume of approximately 1.4 mL); plasma and PBLs were then isolated using Ficoll Paque gradient (GE Healthcare Europe, Diegem, Belgium). Plasma samples were stored at –80°C until compound analysis. Isolated lymphocytes were lysed with RLT buffer (QIAGEN, Venlo, the Netherlands) as described in the QIAGEN RNAeasy kit protocol and stored at –80°C until use.
as §5
Data analysis. We obtained concentration–response curves using a sigmoidal dose–response nonlinear regression curve fit with variable slope (GraphPad Prism 6.01; GraphPad Software Inc., San Diego, CA, USA): […]

| Compound | BMR20TCDD PBLs Cyp1b1 mRNA [µg/kg BW] |
| --- | --- |
| Clc1cc2c(cc1Cl)Oc1c(cc(Cl)c(Cl)c1Cl)O2 [PeCDD, 1,2,3,7,8-pentachlorodibenzodioxin] | 51.8 |

same assay, conditions: dose metric Syst plasma; 3 days after single oral dose

| Compound | BMR20TCDD PBLs Cyp1b1 mRNA [ng/g lipid] |
| --- | --- |
| Clc1cc2c(cc1Cl)Oc1c(cc(Cl)c(Cl)c1Cl)O2 [PeCDD, 1,2,3,7,8-pentachlorodibenzodioxin] | 63.8 |

same assay, conditions: highest dose tested; day 3

| Compound | Induction of Cyp1b1 mRNA in PBLs, of the maximal induction of TCDD [%] |
| --- | --- |
| Clc1ccc(-c2cc(Cl)c(Cl)c(Cl)c2)cc1Cl [PCB-126, 3,3´,4,4´,5-pentachlorobiphenyl] | 3.5 |

same assay, conditions: relative to TCDD; dose metric Adm dose (µg/kg BW)

| Compound | REP PBLs Cyp1b1 mRNA |
| --- | --- |
| Clc1cc2c(cc1Cl)Oc1c(cc(Cl)c(Cl)c1Cl)O2 [PeCDD, 1,2,3,7,8-pentachlorodibenzodioxin] | 0.4 |

same assay, conditions: relative to TCDD; dose metric Syst plasma (ng/g lipid)

| Compound | REP PBLs Cyp1b1 mRNA |
| --- | --- |
| Clc1cc2c(cc1Cl)Oc1c(cc(Cl)c(Cl)c1Cl)O2 [PeCDD, 1,2,3,7,8-pentachlorodibenzodioxin] | 0.8 |

same assay, conditions: single oral dose, day 3

| Compound | Effect on Cyp1b1 mRNA in PBLs |
| --- | --- |
| Clc1cc2c(cc1Cl)Oc1c(cc(Cl)c(Cl)c1Cl)O2 [PeCDD, 1,2,3,7,8-pentachlorodibenzodioxin] | dose-dependently induced |
